Marks after values point to notes of the source that are not given here.
Assays:
[1] = target: T1, recombinant human cardiac S1 myosin (Homo sapiens, UniProt P12883); test: Actin-activated ATPase, cardiac S1 myosin; assay type: biochemical; conditions: at 3 μM
T1 construct: subfragment-1 (51) myosins from cardiac (recombinant human), skeletal (rabbit psoas) and smooth (chicken gizzard) muscles; made in house
Experimental: The ability of Compound I to increase myocardial ATP turnover rates selectively was evaluated using both left atrial (LA) and left ventricular (LV) myofibrils prepared from Yucatan mini-pig hearts, as well as subfragment-1 (51) myosins from cardiac (recombinant human), skeletal (rabbit psoas) and smooth (chicken gizzard) muscles. Pig hearts were harvested, and the left atria/ventricles were freshly excised, dissected, frozen in liquid nitrogen and stored at −80° C. […]
Steady-state ATPase measurements at varying concentrations of Compound I (0-50 μM, in 2% DMSO) were conducted using a coupled enzyme system utilizing pyruvate kinase and lactate dehydrogenase. This enzyme system couples the formation of ADP to the oxidation of NADH leading to an absorbance change at 340 nm. […] All measurements were carried out at 25° C. using a plate reader (SpectraMax; Molecular Devices, LLC, CA, USA) to monitor the change in absorbance as a function of time; data were normalized to a per-second scale as described in Green et al., Science (2016) 351(6273):617-21. […]

[2] = tested on: patients with stable HFrEF; test: Multiple-ascending dose trial, TTE left atrial parameters; assay type: in vivo, human
Excerpt: This example describes a study to establish the effect on left atrial dimensions and function of single- and multiple-ascending oral doses of Compound I in ambulatory patients with stable heart failure with reduced ejection fraction (HFrEF). Key eligibility criteria included stable HFrEF of ischemic or nonischemic origin, treated with guideline-directed medical therapy (EF initial requirement during Screening was 20 to 45%, and was later changed by amendment to 15 to 35%). Subjects with active ischemia or severe or valvular heart disease were excluded.
The clinical trial enrolled patients who were 18-80 years of age with a clinical diagnosis of stable chronic heart failure with an LV ejection fraction (LVEF) on echocardiography of 45% or less (subsequently amended to ≤35%), treated with guideline-directed medical therapy, and with good quality echocardiogram images. […] Patients with current or recent AF were also excluded. Detailed inclusion and exclusion criteria are shown below.
This was a randomized, parallel-group, DB, placebo-controlled, adaptive design, sequential ascending (oral) multiple-dose study in stable patients with heart failure. Four MAD Cohorts (A, B, C, D) were enrolled (FIG. 7B). An SRC reviewed results from each cohort and determined the dose and confirmed initial sample size for the subsequent cohort. Additionally, the first 3 patients in each cohort had LVEF>25%; the SRC reviewed preliminary safety data from these patients and decided whether to open cohort enrollment to patients with LVEF<25%.
In Cohort A, Compound I 75 mg twice daily (BID) or matching placebo was administered after a 2-hour fast, and food was not allowed for the following 2 hours. In Cohorts B, C and D, patients received Compound I 50, 75 and 100 mg BID, respectively, with food (Table 5).
Patients were admitted to a clinical research unit for 11 days and underwent 3 consecutive study periods: (1) an initial single-blind placebo run-in period of 2 days (Days 1-2); (2) a randomized (1:3) double-blind treatment period in which patients received 7 days of placebo or Compound I, administered orally twice daily (from Day 3 until Day 9); (3) a follow-up period with patients discharged from the unit on D11, and a final follow-up clinic visit conducted on Day 16. During the 11-day confinement, patients were under continuous supervision.
During the study, multiple evaluations were performed that included: serial TTE assessments (11-14 TTEs per patient on Days 1, 2, 3, 4, 7, 9, 10 and 11); PK sampling (PK sample collected concomitantly with every post-randomization echocardiogram); ECGs (on Days 2, 3, 4, 7, 9, 10, 11 and 16); troponin (collected concomitantly with every post-randomization ECG); and safety laboratory assessments. Confined patients underwent continuous telemetry. Holter monitoring was performed in all patients at baseline (Days 1-2) and at the end of double-blind treatment (Days 7-9). Vital signs were collected daily.

[3] = Pharmacokinetics in patients with stable HFrEF; assay type: in vivo; conditions: human, oral
Experimental: In the single-ascending dose trial, single fasting doses of Compound I 175-550 mg or placebo were evaluated in a crossover manner in 12 patients over two sequential cohorts (1 and 2), with intervals between singles doses ranging from 3 days (subsequently amended to 5) to 14 days. In Cohort 1, eight patients were enrolled and all received placebo and Compound I 175 mg and 350 mg (in random sequence and in a blinded fashion) during three periods, A-C. Six patients elected to continue into a fourth optional open label period D. Compound I doses administered in the open-label period included: 350 mg (n=1); 450 mg (divided into two administrations; n=1); 525 mg (n=2); and 550 mg (divided into two administrations; n=2). In Cohort 2, four patients were enrolled, and all received placebo and Compound I 400 mg and 500 mg in random sequence (both active 400 mg and 500 mg doses were divided into two administrations).
For each treatment period, pre-dose assessments followed by administration of single dose were performed on Day 1 in the morning. The patient underwent serial pharmacokinetic (PK), pharmacodynamic (PD [trans-thoracic echocardiography or TTE]), ECG and safety laboratory assessments through Day 1 (until the evening) as well as on Day 2. Patients were discharged on Day 3 morning and returned to the clinic on Day 4 for a final PK assessment, and evaluation of adverse events (AEs). […]

[4] = plasma concentrations ≥2000 ng/mL, 'up to', p<0.01

T1 sequence (P12883 1-808 limits assumed): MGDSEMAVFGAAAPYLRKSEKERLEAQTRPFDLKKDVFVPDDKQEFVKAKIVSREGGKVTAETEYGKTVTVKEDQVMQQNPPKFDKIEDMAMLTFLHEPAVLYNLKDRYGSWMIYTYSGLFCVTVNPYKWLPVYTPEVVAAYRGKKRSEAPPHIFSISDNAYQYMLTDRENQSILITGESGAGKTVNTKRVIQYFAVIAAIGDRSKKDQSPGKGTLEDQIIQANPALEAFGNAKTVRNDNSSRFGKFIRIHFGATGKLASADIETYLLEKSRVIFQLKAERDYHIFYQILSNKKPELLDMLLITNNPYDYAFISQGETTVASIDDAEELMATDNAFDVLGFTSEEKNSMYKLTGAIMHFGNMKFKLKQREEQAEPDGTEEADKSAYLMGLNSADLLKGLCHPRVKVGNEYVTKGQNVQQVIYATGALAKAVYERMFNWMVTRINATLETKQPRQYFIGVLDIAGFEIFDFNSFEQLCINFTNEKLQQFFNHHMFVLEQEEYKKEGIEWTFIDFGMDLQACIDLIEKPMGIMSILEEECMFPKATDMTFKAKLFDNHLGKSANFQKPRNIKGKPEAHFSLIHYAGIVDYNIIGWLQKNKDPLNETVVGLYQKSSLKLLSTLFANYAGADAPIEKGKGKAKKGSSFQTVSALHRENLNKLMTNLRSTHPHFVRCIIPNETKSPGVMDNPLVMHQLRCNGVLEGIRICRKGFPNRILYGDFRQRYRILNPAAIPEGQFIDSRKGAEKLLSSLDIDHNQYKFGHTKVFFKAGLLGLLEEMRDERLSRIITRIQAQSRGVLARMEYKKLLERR
T1 sequence (P08590 2-195 partner limits assumed): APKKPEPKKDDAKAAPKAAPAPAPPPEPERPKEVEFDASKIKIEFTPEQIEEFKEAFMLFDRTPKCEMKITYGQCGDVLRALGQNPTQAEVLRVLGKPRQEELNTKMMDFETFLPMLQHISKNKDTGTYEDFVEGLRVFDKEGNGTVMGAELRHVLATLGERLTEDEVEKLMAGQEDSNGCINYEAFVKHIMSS

SMILES: Cn1cc(S(=O)(=O)[C@@](C)(F)C2CCN(C(=O)Nc3ccon3)CC2)c(C(F)F)n1 [Compound I, (R)-4-(1-((3-(difluoromethyl)-1-methyl-1H-pyrazol-4-yl)sulfonyl)-1-fluoroethyl)-N-(isoxazol-3-yl)piperidine-1-carboxamide]
- increase in ATPase rate, cardiac (human) S1 myosin [1]: 1.4 fold
- safety and tolerability of drug dosages and exposures tested ([2]; current studies): safe and are well tolerated
- LAminVi, mean change from baseline (placebo-corrected) ([2]; plasma concentration 2000-<3500 ng/mL (medium), SE 0.6, p<0.01): −2.1 mL/m^2
- LAEF, mean change from baseline (placebo-corrected) ([2]; plasma concentration 2000-<3500 ng/mL (n = 26, medium), SE 1.3, p<0.05): 3.3%
- LAmaxVi, mean change from baseline (placebo-corrected) ([2]; plasma concentration 2000-<3500 ng/mL, SE 0.7): −1.1 mL/m^2
- MR jet area/LA area ratio, mean change from baseline (placebo-corrected) ([2]; plasma concentration 2000-<3500 ng/mL, SE 1.3): −0.6%
- LAEF, mean change from baseline (placebo-corrected) ([2]; plasma concentration <2000 ng/mL (n = 30), LS mean difference, SE 1.2, baseline 41 (8)): 2.1%
- LAminVi, mean change from baseline (placebo-corrected) ([2]; plasma concentration <2000 ng/mL, SE 0.6, baseline 17 (7), p<0.01): −1.8** mL/m^2
- LAmaxVi, mean change from baseline (placebo-corrected) ([2]; plasma concentration <2000 ng/mL, SE 0.6, baseline 28 (9)): −1.2 mL/m^2
- MR jet area/LA area ratio, mean change from baseline (placebo-corrected) ([2]; plasma concentration <2000 ng/mL, SE 1.2, baseline 8.7 (10.5)): 0.3%
- LAFI, mean change from baseline (placebo-corrected) ([2]; plasma concentration <2000 ng/mL, SE 1.5, baseline 26 (13)): 2.6
- LAminVi, mean change from baseline (placebo-corrected) ([2]; plasma concentration ≥3500 ng/mL (high), SE 0.7, p<0.01): −2.4 mL/m^2
- LAEF, mean change from baseline (placebo-corrected) ([2]; plasma concentration ≥3500 ng/mL (n = 13, high), SE 1.6, p<0.05): 3.6%
- LAmaxVi, mean change from baseline (placebo-corrected) ([2]; plasma concentration ≥3500 ng/mL, SE 0.8): −1.3 mL/m^2
- MR jet area/LA area ratio, mean change from baseline (placebo-corrected) ([2]; plasma concentration ≥3500 ng/mL, SE 1.6, p<0.05): −4.2* %
- decrease in LA minimal volume index compared with placebo [2, 4]: up to −2.4 mL/m2
- increase in LA function index compared with placebo [2, 4]: up to 6.1
- half-life ([3]; in vivo, patients that received Compound I as part of Cohort 1 (single doses)): 20 to 25 h
- concentration at 7 days ([3]; plasma, 50 mg BID, with food, read-out: steady-state concentration): 2000 to 3500 ng/mL
